Measurements from patent publication US20100017370A1, “T CELL EPITOPE DATABASES” (ANTITOPE LIMITED, priority 2006, published 2010).

System: helper T cells in human PBMCs
Assay: ex vivo T cell proliferation assay of peptides with CD8+ / CD25hi depleted PBMC
Type: cell-based
Conditions: for Number of responding donors: from 50 donors with a range of MHC class haplotypes; for Mean SI: mean stimulation index for responding donors, 50 donors tested; for helper T cell epitope status by T cell assays (database entry): proliferation assay, threshold SI≧2, CD25hi depletion 10 and 20 minutes; for T cell epitope strength (T cell proliferative responses): PBMCs of donor 475, peptide 5 μM

Sequence | Number of responding donors | Mean SI | helper T cell epitope status by T cell assays (database entry) | T cell epitope strength (T cell proliferative responses)
FKGEQGPKG | 4 | 3.5 ± 0.7 | – | –
FLLTRILTI | 6 | 3.9 ± 1.6 | – | –
FQHESGPLG [test peptide] | 3 | 2.8 ± 0.7 | – | –
FQHTSILLI [test peptide] | 5 | 3.8 ± 0.7 | – | –
GDKGVSWYQQGSGQS [2-F→G] | – | – | negative | –
GFGBHIGPLGEP | – | – | non-T cell epitope | –
GQHASGGLA [control peptide with altered P1 residue] | 0 | – | – | –
GQHESASLR [control peptide with altered P1 residue] | 0 | – | – | –
GQHESGPLG [control peptide with altered P1 residue] | 0 | – | – | –
GQHTSILLI [control peptide with altered P1 residue] | 0 | – | – | –
GQHWSYPLT [control peptide with altered P1 residue] | 0 | – | – | –
ILWEWASYR | 3 | 2.6 ± 0.6 | – | –
IQHESASLR [test peptide] | 3 | 2.6 ± 0.1 | – | –
LQHASGGLA [test peptide] | 2 | 2.2 ± 0.2 | – | –
LQHWSYPLT | 5 | 6.3 ± 1.3 | – | –
LSCAAGGRA | 3 | 2.3 ± 0.5 | – | –
PKYRNGQPLNSLKIAT [25 M→G] | – | – | negative | –
PKYRNMQPLNSLKIAT [compound 25] | – | – | helper T cell epitopes | strong
QSISNWGNWYQQKPG [9-L→G] | – | – | negative | –
TVFYNIPPMPL [compound 26] | – | – | helper T cell epitopes | strong
TVGYNIPPMPL [26 F→G] | – | – | negative | –
